Tested on: SC-34 (DNA, aptamer) ACCTTAAGTGGGGTTCGGGTGGAGTTTATGGGGT
Test: ITC, single-site model
Settings: 20 mM NaCl, 0.5 mM MgCl2; 10 mM Tris, pH 7.4, 23 °C; same value in low-salt PBS

KD: ~ 300 nM
Compound: CCC[C@H](C(=O)c1ccc2c(c1)OCO2)N1CCCC1

Reference: article PMC7933091 (2021)
